Here are results for 22 molecules from patent US20050137135A1 (priority 2002, published 2005).

For data set [1], the target named is T1, DPIV (dipeptidyl peptidase IV) (Sus scrofa, UniProt P22411).
T1 construct: The hydrolysis of peptide analogues by purified kidney DPIV was studied as described previously [12]; from tissue; host or cells: kidney
As to the kind of experiment: Determination of DPIV resistance by MALDI-TOF mass spectrometry. Type of data set: in vitro ADME. Particulars: purified kidney DPIV, 0.04 M Tris buffer pH 7.6, up to 24 h, MALDI-TOF MS; read-out: half life after incubation with DP IV. How it is done:
The hydrolysis of peptide analogues by purified kidney DPIV was studied as described previously. […] Samples were removed from the incubation mixture and prepared for MALDI-TOF mass spectrometry, as described in Pauly, […]., Pederson, R. A., and Demuth, H. U.

The test system of data set [2] is INS-1 (832/13) cells. As to the kind of experiment: Cell survival during glucose deprivation (CYQUANT). The following applies: inhibitor added 15 min prior to final 24 h culture, 100 nM GIP. It is filed as cell-based. How it is done:
(§1) Cell passages 45-60 were used.
Cells were seeded into 96-well plates (5×10^4 cells/well) prior to experimentation. […] Cells were quantified using the CYQUANT™ assay system (Molecular Probes, Eugene, Oreg., USA) according to the manufacturers' protocol.
Cell survival was assessed in the presence of prolonged glucose deprivation.

Data set [3] has as its system INS-1 (832/13) cells. Put plainly: Glucose dependent β-cell proliferation (CYQUANT cell quantification). It is filed as cell-based. The procedure: as §1
Cells were seeded into 96-well plates (5×10^4 cells/well) prior to experimentation. […] Thereafter, cells were washed with KRBH (115 mM NaCl, 4.7 mM KCl, 1.2 mM KH2PO4, 10 mM NaHCO3, 1.28 mM CaCl2, 1.2 mM MgSO4 containing 10 mM HEPES and 0.1% bovine serum albumin, pH 7.4) and frozen at −70° C. until assayed. Cells were quantified using the CYQUANT™ assay system (Molecular Probes, Eugene, Oreg., USA) according to the manufacturers' protocol. Final cell numbers were always greater than the initial number plated in assessing cellular proliferation.

In data set [4] the target is T2, rat pancreatic islet (wild type) GIP-receptor stably expressed on CHO-K1 cells (rat) (UniProt P43219).
T2 sequence (looked up): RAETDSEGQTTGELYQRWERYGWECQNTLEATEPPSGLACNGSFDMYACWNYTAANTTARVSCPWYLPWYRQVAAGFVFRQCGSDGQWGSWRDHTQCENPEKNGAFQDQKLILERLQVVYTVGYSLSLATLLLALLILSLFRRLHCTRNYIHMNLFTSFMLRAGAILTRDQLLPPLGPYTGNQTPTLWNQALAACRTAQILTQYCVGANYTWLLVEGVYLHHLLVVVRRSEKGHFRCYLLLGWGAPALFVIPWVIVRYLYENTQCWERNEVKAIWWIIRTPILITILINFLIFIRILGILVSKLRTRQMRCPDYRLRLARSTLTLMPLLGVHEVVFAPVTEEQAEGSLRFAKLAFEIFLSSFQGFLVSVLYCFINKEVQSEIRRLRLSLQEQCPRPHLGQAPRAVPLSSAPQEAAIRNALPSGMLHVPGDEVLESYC
Put plainly: displacement of 125I-GIP from intact CHO-K1 cells expressing rat GIP receptor, 10 µM peptide.

Data set [5] addresses T3, rat pancreatic islet (wild type) GIP-receptor (Rattus norvegicus, UniProt P43219).
T3 construct: expressed in transfected cells; host or cells: CHO-K1 (Chinese hamster ovary)
T3 sequence (P43219 19-455): T2 sequence (looked up)
Put plainly: biochemical. Type of data set: binding. How it is done:
(§2) Cells were cultured in DMEM/F12, supplemented with 10% newborn calf serum, 50 units/ml penicillin G, and 50 μg/ml streptomycin (Culture media and antibiotics from Gibco BRL, Life Technologies). Cells were grown in 75 cm^2 flasks until 80-90% confluent, when they were split and seeded onto 24 well plates at a density of 50,000 cells/well. Experiments were carried out 48 h later.
(§3) Binding studies using ^125I-labeled spGIP1-42, purified by high performance liquid chromatography (HPLC), were performed essentially as described previously-[21]. wtGIP-R1 Cells (1-5×10^5/well) were washed twice at 4° C. in binding buffer (BB), consisting of DMEM/F12 (GIBCO), 15 mM HEPES, 0.1% bovine serum albumin (BSA), 1% Trasylol (aprotinin; Bayer), pH 7.4. They were incubated for 12-16 h at 4° C. with ^125I-spGIP (50,000 cpm) in the presence or absence of unlabeled GIP1-42 or analogue. Following incubation, cells were washed twice with ice cold buffer, solubilized with 0.1 M NaOH (1 ml), and transferred to culture tubes for counting of cell-associated radioactivity. Nonspecific binding was defined as that measured in the presence of 1 μM GIP1-42 or GIP1-30, and specific binding expressed as % of binding in the absence of competitor (% B/Bo).

Data set [6] has as its target T3, rat pancreatic islet (wild type) GIP-receptor. As to the kind of experiment: cAMP production in CHO-K1 cells expressing the GIP-receptor (wtGIP-R1 cells). It is filed as cell-based. The following applies: basal cyclic AMP = 2.737 ± 0.079 fmol/1000 cells; for cAMP Production (Fold Basal) 10 μM: 10 μM peptide. How it is done: as §2
Cells were extracted with 70% ethanol and cAMP levels measured by radioimmunoassay (Biomedical Technologies, Stoughton, Mass.). Data are expressed as fmol/1000 cells or % maximal GIP1-42-stimulated cAMP production (inhibition experiments).
In general terms: Changes in cAMP serve as a functional read-out for many G protein-coupled receptors.

The target of data set [7] is T2, rat pancreatic islet (wild type) GIP-receptor stably expressed on CHO-K1 cells (rat). As to the kind of experiment: cell-based or functional assay.
The target in data set [8] is T4, rat pancreatic islet (wild type) GIP-receptor stably expressed on CHO-K1 cells (rat, UniProt P43219 19-455).
T4 construct: whole, on cells; also called wtGIPR cells; wtGIP-R1 cells
T4 sequence (looked up): T2 sequence (looked up)
Put plainly: displacement of 125I-GIP from intact CHO-K1 cells expressing rat GIP receptor, 10 µM peptide. How it is done: Cells were cultured in DMEM/F12, supplemented with 10% newborn calf serum, 50 units/ml penicillin G, and 50 μg/ml streptomycin (Culture media and antibiotics from Gibco BRL, Life Technologies). Cells were grown in 75 cm² flasks until 80-90% confluent, when they were split and seeded onto 24 well plates at a density of 50,000 cells/well. Experiments were carried out 48 h later.
as §3, with “¹²⁵I-labeled spGIP₁₋₄₂,” for “^125I-labeled spGIP1-42,”, “(1-5×10⁵/well)” for “(1-5×10^5/well)”, “¹²⁵I-spGIP” for “^125I-spGIP”, “GIP₁₋₄₂” for “GIP1-42”, “GIP₁₋₃₀,” for “GIP1-30,”

Data set [9] has as its target T4, rat pancreatic islet (wild type) …. Put plainly: cell-based or functional assay.

“Also recorded” adds a separate entry of the source. Square brackets hold non-standard residues; d marks the D form. Ends that are not written are not given here. Peptide text beside a SMILES is read from it.

As a reminder, the half-life is how long it takes for the measured level to halve.

T1 sequence (P22411 whole entry): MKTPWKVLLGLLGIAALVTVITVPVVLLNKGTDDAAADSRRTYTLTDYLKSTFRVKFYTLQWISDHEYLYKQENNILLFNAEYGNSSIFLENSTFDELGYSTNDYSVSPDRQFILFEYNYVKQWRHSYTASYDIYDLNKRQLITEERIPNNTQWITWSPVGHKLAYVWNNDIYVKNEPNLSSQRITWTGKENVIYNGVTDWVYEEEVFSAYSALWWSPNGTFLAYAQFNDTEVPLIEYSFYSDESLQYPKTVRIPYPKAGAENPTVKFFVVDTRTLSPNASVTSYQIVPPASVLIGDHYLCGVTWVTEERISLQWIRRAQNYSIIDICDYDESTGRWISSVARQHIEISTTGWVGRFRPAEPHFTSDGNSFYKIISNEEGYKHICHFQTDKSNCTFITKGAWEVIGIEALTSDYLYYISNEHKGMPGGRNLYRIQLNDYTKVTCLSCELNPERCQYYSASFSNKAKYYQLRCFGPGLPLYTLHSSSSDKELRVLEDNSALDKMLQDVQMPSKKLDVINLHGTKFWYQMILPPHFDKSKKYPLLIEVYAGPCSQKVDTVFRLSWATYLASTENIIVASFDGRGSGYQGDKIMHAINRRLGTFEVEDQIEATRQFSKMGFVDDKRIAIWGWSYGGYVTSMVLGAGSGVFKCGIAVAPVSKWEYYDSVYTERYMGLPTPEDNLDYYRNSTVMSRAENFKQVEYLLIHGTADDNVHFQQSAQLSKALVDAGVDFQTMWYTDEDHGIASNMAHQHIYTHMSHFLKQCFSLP

Turning to `CC[C@H](C)[C@H](NC(=O)[C@H](CO)NC(=O)[C@H](Cc1ccc(O)cc1)NC(=O)[C@H](CC(=O)O)NC(=O)[C@H](CO)NC(=O)[C@@H](NC(=O)[C@H](Cc1ccccc1)NC(=O)[C@@H](NC(=O)CNC(=O)[C@@H](CCC(=O)O)NC(=O)[C@H](C)NC(=O)[C@@H](N)Cc1ccc(O)cc1)[C@@H](C)O)[C@@H](C)CC)C(=O)N[C@@H](C)C(=O)N[C@@H](CCSC)C(=O)N[C@@H](CC(=O)O)C(=O)N[C@@H](CCCCN)C(=O)N[C@H](C(=O)N[C@@H](CCCNC(=N)N)C(=O)N[C@@H](CCC(N)=O)C(=O)N[C@@H](CCC(N)=O)C(=O)N[C@@H](CC(=O)O)C(=O)N[C@@H](Cc1ccccc1)C(=O)N[C@H](C(=O)N[C@@H](CC(N)=O)C(=O)N[C@@H](Cc1c[nH]c2ccccc12)C(=O)N[C@@H](CC(C)C)C(=O)N[C@@H](CC(C)C)C(=O)N[C@@H](C)C(=O)N[C@@H](CCC(N)=O)C(=O)N[C@@H](CCCCN)C(N)=O)C(C)C)[C@@H](C)CC` [D-Glu^3-GIP1-30] (H-YA[dE]GTFISDYSIAMDKIRQQDFVNWLLAQK-NH2; N-terminus and C-terminus assumed), in [1], the half-life came to 0.672 ± 0.08 h.
Regarding `O=S(=O)(NCCNC/C=C/c1ccc(Br)cc1)c1cccc2cnccc12` [H89], the “effect of protein kinase inhibitor on GIP-mediated cell survival” value with INS-1 (832/13) cells [2] is listed as “lack of effect; also recorded: unable to reverse”.
Same read-out and setting: with `COc1cccc(-c2cc(=O)c3ccccc3o2)c1N` [PD98059] the entry was “Neither of the Mek1/2 inhibitors PD98059 (50 and 100 μM) nor U0126 (10 μM) blocked”; with `Oc1ccc(-c2nc(-c3ccncc3)c(-c3ccc(F)cc3)[nH]2)cc1` [SB202190], “influenced GIP-mediated cell survival”.
Turning to `N#CC(=C(/N)Sc1ccccc1N)/C(C#N)=C(\N)Sc1ccccc1N` [U0126], in the data set on INS-1 (832/13) cells [2], the “effect of protein kinase inhibitor on GIP-mediated cell survival” value is “Neither of the Mek1/2 inhibitors PD98059 (50 and 100 μM) nor U0126 (10 μM) blocked”.
As for “GH: GH, comparator for cell growth in INS-1 cells”, the “cell proliferation, % of growth in the presence of 5.5 mM glucose” value with INS-1 (832/13) cells [3] (11 mM glucose, 10 nM, FIG. 15A) amounted to 158±9%.
As to “GIP 1-7NH2 (from UniProt P09681 52-58) (peptide)”, in [4], the % Displacement at 10 µM is -6.1%.
Still for that read-out and setting: with “GIP 1-15OH (from UniProt P09681 52-66) (peptide)” the figure was -3.1%.
With “ISDYSIAMDKIRQQDFVNWLLAQK-NH2 [GIP7-30a, reference compound]”, in data set [1], the half-life is 2.17 ± 0.177 h. Besides, the “Receptor Binding % Displacement at 10 μM” value in [5] (10 μM peptide, 125I-GIP) came out at 99.3 ± 1.0%. The “cAMP Production (Fold Basal) 10 μM” value in data set [6] turned out to be 0.89 ± 0.06 Fold Basal. For the same molecule, the “cAMP Production (Fold Basal) 20 μM” value in [6] (20 μM peptide) is 0.85 ± 0.03 Fold Basal.
For YAEGTF-NH2 [GIP1-6a], the half-life in data set [1] was > 0.125 h. Besides, in data set [5] (10000.0), the “Receptor Binding % Displacement at 10 μM” value is listed as −3.6 ± 7.8%.
As for “YAEGTFISDYSIAMDKIRQQDFVNWLLAQK-NH2 [GIP1-30a, reference compound]”, the half-life in [1] was < 0.25 h. Further, the “Receptor Binding % Displacement at 10 μM” value in data set [5] (10 μM peptide, 125I-GIP) is given as 99.8 ± 1.2%. Besides, the “cAMP Production (Fold Basal) 10 μM” value in data set [6] was determined as 108 ± 12 Fold Basal.
As for “YGEGTFISDYSIAMDKIRQQDFVNWLLAQK-NH2 [Gly^2-GIP1-30a]”, the half-life in [1] is 2.51 ± 0.455 h.
Still for that read-out and setting: with YPEGTF-NH2 [Pro^2-GIP1-6a] the figure was > 0.125 h; with “YSEGTFISDYSIAMDKIRQQDFVNWLLAQK-NH2 [Ser^2-GIP1-30a]”, 2.28 ± 0.205 h; with “YVEGTFISDYSIAMDKIRQQDFVNWLLAQK-NH2 [Val^2-GIP1-30a]”, 4.97 ± 1.54 h.
As to glucagon-like peptide-17-36 [GLP-1], the “cell growth, % of that measured in the presence of 5.5 mM glucose” value in the data set with INS-1 (832/13) cells [3] (separate experiment, 100 nM, n=4) was 129±4%.
As to YAEGTF-NH2 (peptide, UniProt P09681 52-57, looked up) [GIP 1-6NH2], the % Displacement at 10 µM in data set [4] is -3.6%. In data set [7], this molecule yielded a cAMP Production (Fold Basal) at 10 µM of 1.27 fold basal and a cAMP Production (Fold Basal) at 20 µM of 1.08 fold basal.

B1: GIP 1-14OH (peptide, UniProt P09681 52-65, looked up)
peptide: YAEGTFISDYSIAM-OH
notes: range 1-14; free acid form; also called native GIP (1-14)
Turning to B1, in [8], the “% Displacement at 10 µM” value is 51.3%. In addition, in data set [9], the “cAMP Production (Fold Basal) at 10 µM” value amounted to 88.9 fold basal and the “cAMP Production (Fold Basal) at 20 µM” value amounted to 85.2 fold basal.
With YAEGTFISDYSIA-NH2 (peptide, UniProt P09681 52-64, looked up, range 1-13) [GIP 1-13NH2], the “% Displacement at 10 µM” value in data set [8] came out at 5%. For the same molecule, in [9], the “cAMP Production (Fold Basal) at 10 µM” value worked out at 6.51 fold basal and the “cAMP Production (Fold Basal) at 20 µM” value was 15.7 fold basal.
For QQDFVNWLLAQK-NH2 (peptide, UniProt P09681 70-81, looked up, range 19-30; also called GIP19-30a) [GIP 19-30NH2], in that order: 52.3%, 20.1 fold basal and 45 fold basal.
For YAEGTFISDYSIAM-NH2 (peptide, UniProt P09681 52-65, looked up, range 1-14) [GIP 1-14NH2], in that order: 27.9%, 75.4 fold basal and 88.3 fold basal.
In the case of YAEGTFISDYSIA-OH (peptide, UniProt P09681 52-64, looked up) [GIP 1-13OH], the % Displacement at 10 µM in data set [4] is -0.2%. In data set [7], this molecule returned a cAMP Production (Fold Basal) at 10 µM of 1.03 fold basal and a cAMP Production (Fold Basal) at 20 µM of 1.15 fold basal.
